Laboratory results reported in PubChem BioAssay (NCI).
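Five concentrations, 48 hours, 96-well plates. GI50 is the concentration that inhibits growth by half. TGI: total growth inhibition.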

What was measured:
Assay in all cases: DTP human tumour cell line panel, 48 h
CCRF-CEM leukemia = test system: CCRF-CEM leukemia
HT29 colon = test system: HT29 colon
SNB-75 CNS = test system: SNB-75 CNS
IGROV1 ovarian = test system: IGROV1 ovarian
RXF 393 renal = test system: RXF 393 renal
PC-3 prostate = test system: PC-3 prostate
SR leukemia = test system: SR leukemia
SF-268 CNS = test system: SF-268 CNS
A549 NSCLC = test system: A549 NSCLC
ACHN renal = test system: ACHN renal
CAKI-1 renal = test system: CAKI-1 renal
UACC-257 melanoma = test system: UACC-257 melanoma
NCI-H522 lung = test system: NCI-H522 lung
MDA-MB-231 breast = test system: MDA-MB-231 breast
HCT-116 colon = test system: HCT-116 colon
NCI-H226 lung = test system: NCI-H226 lung
MDA-MB-468 breast = test system: MDA-MB-468 breast
U251 CNS = test system: U251 CNS
SK-OV-3 ovarian = test system: SK-OV-3 ovarian
BT-549 breast = test system: BT-549 breast
786-0 renal = test system: 786-0 renal
T-47D breast = test system: T-47D breast
SK-MEL-5 melanoma = test system: SK-MEL-5 melanoma
EKVX NSCLC = test system: EKVX NSCLC
K-562 leukemia = test system: K-562 leukemia
HOP-92 NSCLC = test system: HOP-92 NSCLC
SNB-19 CNS = test system: SNB-19 CNS
HS 578T breast = test system: HS 578T breast
DU-145 prostate = test system: DU-145 prostate
RPMI-8226 leukemia = test system: RPMI-8226 leukemia
HOP-62 NSCLC = test system: HOP-62 NSCLC
SK-MEL-28 melanoma = test system: SK-MEL-28 melanoma
SF-295 CNS = test system: SF-295 CNS
A498 renal = test system: A498 renal
SW-620 colon = test system: SW-620 colon
OVCAR-8 ovarian = test system: OVCAR-8 ovarian
SK-MEL-2 melanoma = test system: SK-MEL-2 melanoma
MOLT-4 leukemia = test system: MOLT-4 leukemia
OVCAR-3 ovarian = test system: OVCAR-3 ovarian
SN12C renal = test system: SN12C renal
MDA-MB-435 = test system: MDA-MB-435
M14 melanoma = test system: M14 melanoma
UACC-62 melanoma = test system: UACC-62 melanoma
MALME-3M melanoma = test system: MALME-3M melanoma
LOX IMVI melanoma = test system: LOX IMVI melanoma
TK-10 renal = test system: TK-10 renal
SF-539 CNS = test system: SF-539 CNS
HCC-2998 colon = test system: HCC-2998 colon
COLO 205 colon = test system: COLO 205 colon
UO-31 renal = test system: UO-31 renal
OVCAR-4 ovarian = test system: OVCAR-4 ovarian
HL-60(TB) leukemia = test system: HL-60(TB) leukemia
NCI-H23 lung = test system: NCI-H23 lung
MCF7 breast = test system: MCF7 breast
OVCAR-5 ovarian = test system: OVCAR-5 ovarian
HCT-15 colon = test system: HCT-15 colon
KM12 colon = test system: KM12 colon
NCI-H460 lung = test system: NCI-H460 lung

Compound `COc1ccc2nc(Nc3cccc(NC(=O)c4ccc(CN5CCN(C)CC5)c(C(F)(F)F)c4)c3)ccc2c1` has a GI50 (CCRF-CEM leukemia) of 2.15 µM, a TGI (CCRF-CEM leukemia) of 7.65 µM and a GI50 (HT29 colon) of 1.32 µM. For the same compound, the TGI (HT29 colon) was 5.08 µM, the GI50 (SNB-75 CNS) was 0.684 µM and the TGI (SNB-75 CNS) was 6.45 µM. For the same compound, the GI50 (IGROV1 ovarian) was 6.22 µM, the TGI (IGROV1 ovarian) was 12.3 µM and the GI50 (RXF 393 renal) was 1.75 µM. For the same compound, the TGI (RXF 393 renal) was 6.96 µM, the GI50 (PC-3 prostate) was 2.9 µM and the TGI (PC-3 prostate) was 8.68 µM. For the same compound, the GI50 (SR leukemia) was 1.31 µM, the TGI (SR leukemia) was 5.72 µM and the GI50 (SF-268 CNS) was 5.2 µM. For the same compound, the TGI (SF-268 CNS) was 12.5 µM, the GI50 (A549 NSCLC) was 4.36 µM and the TGI (A549 NSCLC) was 9.66 µM. It also gave a GI50 (ACHN renal) of 4.88 µM, a TGI (ACHN renal) of 9.84 µM and a GI50 (CAKI-1 renal) of 4.9 µM. The TGI (CAKI-1 renal) was 9.97 µM, the GI50 (UACC-257 melanoma) was 4.35 µM and the TGI (UACC-257 melanoma) was 9.13 µM. For the same compound, the GI50 (NCI-H522 lung) was 4.88 µM, the TGI (NCI-H522 lung) was 10.3 µM and the GI50 (MDA-MB-231 breast) was 1.84 µM. It also gave a TGI (MDA-MB-231 breast) of 6.49 µM, a GI50 (HCT-116 colon) of 2.41 µM and a TGI (HCT-116 colon) of 7.74 µM. For the same compound, the GI50 (NCI-H226 lung) was 4.6 µM, the TGI (NCI-H226 lung) was 9.77 µM and the GI50 (MDA-MB-468 breast) was 1.56 µM. The TGI (MDA-MB-468 breast) was 7.09 µM, the GI50 (U251 CNS) was 3.77 µM and the TGI (U251 CNS) was 8.84 µM. The GI50 (SK-OV-3 ovarian) was 5.99 µM, the TGI (SK-OV-3 ovarian) was 11.4 µM and the GI50 (BT-549 breast) was 5.58 µM. The TGI (BT-549 breast) was 10.9 µM, the GI50 (786-0 renal) was 4.99 µM and the TGI (786-0 renal) was 10.1 µM. The GI50 (T-47D breast) was 4.12 µM, the TGI (T-47D breast) was 9.96 µM and the GI50 (SK-MEL-5 melanoma) was 5.1 µM. For the same compound, the TGI (SK-MEL-5 melanoma) was 10.2 µM, the GI50 (EKVX NSCLC) was 4.53 µM and the TGI (EKVX NSCLC) was 9.61 µM. For the same compound, the GI50 (K-562 leukemia) was 0.882 µM, the TGI (K-562 leukemia) was 2.59 µM and the GI50 (HOP-92 NSCLC) was 1.36 µM. The TGI (HOP-92 NSCLC) was 6.15 µM, the GI50 (SNB-19 CNS) was 6.14 µM and the TGI (SNB-19 CNS) was 11.5 µM. The GI50 (HS 578T breast) was 4.14 µM, the TGI (HS 578T breast) was 15 µM and the GI50 (DU-145 prostate) was 5.23 µM. For the same compound, the TGI (DU-145 prostate) was 10.4 µM, the GI50 (RPMI-8226 leukemia) was 3.14 µM and the TGI (RPMI-8226 leukemia) was 10.3 µM. For the same compound, the GI50 (HOP-62 NSCLC) was 6.36 µM, the TGI (HOP-62 NSCLC) was 12 µM and the GI50 (SK-MEL-28 melanoma) was 5.33 µM. It also gave a TGI (SK-MEL-28 melanoma) of 10.4 µM, a GI50 (SF-295 CNS) of 3.41 µM and a TGI (SF-295 CNS) of 8.74 µM. It also gave a GI50 (A498 renal) of 7.36 µM, a TGI (A498 renal) of 13.2 µM and a GI50 (SW-620 colon) of 5.89 µM. For the same compound, the TGI (SW-620 colon) was 11.6 µM, the GI50 (OVCAR-8 ovarian) was 5.82 µM and the TGI (OVCAR-8 ovarian) was 11.1 µM. The GI50 (SK-MEL-2 melanoma) was 5.98 µM, the TGI (SK-MEL-2 melanoma) was 11.4 µM and the GI50 (MOLT-4 leukemia) was 1.63 µM. The TGI (MOLT-4 leukemia) was 6.75 µM, the GI50 (OVCAR-3 ovarian) was 5.89 µM and the TGI (OVCAR-3 ovarian) was 11.2 µM. For the same compound, the GI50 (SN12C renal) was 5.49 µM, the TGI (SN12C renal) was 10.8 µM and the GI50 (MDA-MB-435) was 5.73 µM. It also gave a TGI (MDA-MB-435) of 11 µM, a GI50 (M14 melanoma) of 3.63 µM and a TGI (M14 melanoma) of 8.58 µM. For the same compound, the GI50 (UACC-62 melanoma) was 6.45 µM, the TGI (UACC-62 melanoma) was 11.9 µM and the GI50 (MALME-3M melanoma) was 4.62 µM. The TGI (MALME-3M melanoma) was 9.54 µM, the GI50 (LOX IMVI melanoma) was 1.55 µM and the TGI (LOX IMVI melanoma) was 6.05 µM. For the same compound, the GI50 (TK-10 renal) was 6.52 µM, the TGI (TK-10 renal) was 12.1 µM and the GI50 (SF-539 CNS) was 2.08 µM. The TGI (SF-539 CNS) was 7.59 µM, the GI50 (HCC-2998 colon) was 5.25 µM and the TGI (HCC-2998 colon) was 10.7 µM. The GI50 (COLO 205 colon) was 5.78 µM, the TGI (COLO 205 colon) was 11.7 µM and the GI50 (UO-31 renal) was 5.68 µM. It also gave a TGI (UO-31 renal) of 10.9 µM, a GI50 (OVCAR-4 ovarian) of 4.32 µM and a TGI (OVCAR-4 ovarian) of 10 µM. It also gave a GI50 (HL-60(TB) leukemia) of 5.46 µM, a TGI (HL-60(TB) leukemia) of 12.4 µM and a GI50 (NCI-H23 lung) of 5.06 µM. The TGI (NCI-H23 lung) was 10.4 µM, the GI50 (MCF7 breast) was 1.37 µM and the TGI (MCF7 breast) was 6.12 µM. It also gave a GI50 (OVCAR-5 ovarian) of 6.1 µM, a TGI (OVCAR-5 ovarian) of 11.5 µM and a GI50 (HCT-15 colon) of 1.18 µM. For the same compound, the TGI (HCT-15 colon) was 4.45 µM, the GI50 (KM12 colon) was 4.05 µM and the TGI (KM12 colon) was 9.62 µM. It also gave a GI50 (NCI-H460 lung) of 1.88 µM and a TGI (NCI-H460 lung) of 7.21 µM.
